Laboratory results taken from patent publication US5206223A, “Method for inhibiting heparanase activity” (Yeda Research and Development Co. Ltd., priority 1986, dated 1993).
Entries after “also recorded” stand apart in the source; their conditions may differ.

What was measured:
adjuvant arthritis = assay: Adjuvant arthritis induced with M. tuberculosis; format: in vivo, Lewis rats; details: for Inhibition of arthritis / Arthritis score (day 60): rat, in vivo; for Arthritis score (day 60): sc
[1] = rat, in vivo, 10 mg/kg
skin allografts = assay: Skin allograft survival (SJL/J skin on (BALB/c×C57BL/6)F1 mice); format: in vivo; details: 10 mg/kg daily, saline control 10 days
Experimental: FIG. 1. Treatment with heparin (0.05 mg/kg) prevents rejection of skin allografts. Mice of hybrid strain (BALB/c×C57BL/6)F1 were grafted with skin from allogeneic SJL/J mice. The mice (20 per group) were treated daily with subcutaneous injections of saline (squares) or with heparin ("Leo", 0.05 mg/kg; diamonds) and scored for skin graft survival. Median survival for the control group was 10 days while that for the heparin treated group was 24 days.
FIG. 2. Treatment with N-desulfated, N-acetylated heparin (10 mg/kg) prevents rejection of skin allografts. Mice were grafted as described for FIG. 1 and treated daily with saline (squares) or N-desulfated, N-acetylated heparin (10 mg/kg; diamonds). The median survival of the skin allograft in the control group was 10 days while that in the treated group was 20 days.
The median survival time of the skin grafts on control mice treated with saline was […] while that on mice treated with 0.05 mg/kg daily of heparin was 26 days with maximal survival to 32 days.

activated T lymphocytes = assay: Traffic of 51Cr-labeled lymphocytes from subcutaneous site and in blood; format: in vivo; details: rats or mice
Excerpt: To test the effect of modified heparin on T lymphocyte traffic, we labelled the lymphocytes with ^51 Cr and measured the uptake of the labeled lymphocytes from a subcutaneous site and their persistence in the blood.
Furthermore, treatment with the modified heparin led to persistence of labeled lymphocytes in the blood for 4-5 days, while the untreated rats or mice cleared the labeled lymphocytes from the blood in 1 day. Thus, treatment with modified heparin inhibited the ability of T lymphocytes to enter the blood vessels, and once in the blood vessels, prevented the T lymphocytes from exiting. This can be attributed to inhibition of the heparanase enzyme activity needed to penetrate the extracellular matrix of the vessel wall.

[2] = test system: experimental autoimmune encephalomyelitis (EAE); assay: Experimental autoimmune encephalomyelitis (EAE) produced by anti-BP T lymphocytes; format: in vivo, Lewis rats; details: 10 mg/kg daily
Excerpt: EAE is an experimental autoimmune disease with some features reminiscent of multiple sclerosis in humans. The disease is caused by T lymphocytes immunized to the basic protein (BP) of the central nervous system myelin. To test the effect of heparins on the ability of T lymphocytes to cause autoimmune disease, we used T lymphocytes sensitized against BP, either as T cell lines (Cohen, I. R. Experimental autoimmune encephalomyelitis: Pathogenesis and prevention. In: Immunoregulatory Processes in Multiple Sclerosis and Experimental Allergic Encephalomyelitis. A. A. Vandenbark and J. C. M. Raus, eds. Elsevier Biomedical Res. Amsterdam. 7:91-125 (1985)) or as populations of lymph node cells from BP immunized rats.
EAE was produced by inoculating Lewis rats with a T cell line of anti-BP T lymphocytes (10^6 cells) with anti-BP primed lymph node cells (10^7 cells) intravenously (Cohen, I. R. Experimental autoimmune encephalomyelitis: Pathogenesis and prevention. In: Immunoregulatory Processes in Multiple Sclerosis and Experimental Allergic Encephalomyelitis. A. A. Vandenbark and J. C. M. Raus, eds. Elsevier Biomedical Res. Amsterdam. 7:91-125 (1985)) One day before inoculation and daily for 10 days, the rats received either saline or the heparins.

heparanase = assay: Inhibition of T lymphocyte heparanase activity (degradation of 35S-labeled heparan sulfate of extracellular matrix); format: biochemical; details: medium of activated T lymphocytes, 35S-labeled extracellular matrix, various concentrations
Experimental: Heparanase activity was induced into the extracellular medium bathing activated T lymphocytes and tested by incubating the medium with extracellular matrix whose heparan sulfate was labeled with ^35 S as described (Naparstek, Y., Cohen, I. R., Fuks, Z. and I. Vlodavsky. Activated T lymphocytes produce a matrix-degrading heparan sulphate endoglycosidase. Nature 310:241 (1984)). Inhibition of heparanase activity was tested by adding various concentrations of heparin or modified heparins to the reaction mixture and measuring the effect on degradation of the labeled heparin-sulfate as described (Naparstek, Y., Cohen, I. R., Fuks, Z. and I. Vlodavsky.
Activated T lymphocytes produce a matrix-degrading heparan sulphate endoglycosidase, Nature 310:241 (1984)). Totally desulfated heparin and N-desulfated, N-acetylated heparin was prepared as described. (Ayotte, L., A. S. Perlin. NMR spectroscopic observations related to the function of sulfate groups in heparin. Calcium binding vs. biological activity. Carbohydrate Res. 145:267 (1986)).

| Substance | Inhibition of arthritis (adjuvant arthritis) | Arthritis score (day 60) (adjuvant arthritis) | Anti-coagulant effect (prothrombin time) [1] | Median survival of skin allograft (skin allografts) [days] | Persistence of labeled lymphocytes in the site of injection into the tail (activated T lymphocytes; 0.05 mg/kg, control 1-2 days) [days] | Persistence of labeled lymphocytes in the blood (activated T lymphocytes; untreated cleared in 1 day) [days] | Duration of EAE ([2]; A: T cell line, None 4.2) [days] | Day of onset of EAE ([2]; A: T cell line, None 5.2) | % incidence of EAE ([2]; A: T cell line, None 100) [%] | Clinical score of EAE ([2]; A: T cell line, scale 1-4, None 2.4) | % incidence of EAE ([2]; C: primed lymph node cells, None 80) [%] | Inhibition of degradation of heparan sulfate by heparanase (heparanase) | Inhibition of adjuvant arthritis (FIG. 4) (adjuvant arthritis; 0.02 mg per rat (0.1 mg/kg) s.c. once daily from day 9, 0.1 mg/kg) | Inhibition of adjuvant arthritis (FIG. 4) (adjuvant arthritis; 0.04 mg s.c. once daily from day 9) | Histologic examination of the joints (adjuvant arthritis; 0.1 mg/kg/day from day 21 to 51, control rats severe signs of inflammation) | Remission of established adjuvant arthritis (FIG. 5) (adjuvant arthritis; 0.1 mg/kg/day s.c. from day 21 to 51) |
| --- | --- | --- | --- | --- | --- | --- | --- | --- | --- | --- | --- | --- | --- | --- | --- | --- |
| N-desulfated heparin | no | 5 | – | – | – | – | – | – | – | – | – | – | – | – | – | – |
| N-desulfated, N-acetylated heparin | yes | 0 | no anti-coagulant effect | 20 | 5 to 6 | 4 to 5 | 1.8 | 6.4 | 50 | 0.8 | 0 | yes | significant inhibition of arthritis; also recorded: maximum effect | ineffective | healthy joints | early remission of established adjuvant arthritis |
| O-desulfated, N-acetylated heparin | yes | 0 | – | – | – | – | – | – | – | – | – | – | – | – | – | – |
| totally desulfated heparin [Heparin: totally desulfated] | no | 5 | – | – | – | – | – | – | – | – | – | no | – | – | – | – |
